How the values were obtained:
[1] = compound: NC(=O)CCCCC1CCSS1 [lipoamide]; assay: thermal stability z-score vs DMSO; higher = more thermally stabilized by treatment; settings: HeLa, lipoamide concentration 100 µM
Experimental: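 Cellular thermal proteome profiling in HeLa cells. Cells were treated with 100 µM lipoamide for 1 h, with or without 1 mM arsenate for a further 1 h, then heated to ten temperatures (37-66.3 °C), and soluble protein was quantified by TMT mass spectrometry relative to 0.1% DMSO controls. The thermal stability score (sum of log2 fold changes minus the abundance score) was transformed to a z-score; mean of n = 3 experiments.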

[2] = compound: O=[As]([O-])(O)O.[K+] [potassium arsenate]; assay: as above; settings: HeLa; arsenate concentration 1 mM
Experimental: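 Cellular thermal proteome profiling in HeLa cells treated with 1 mM arsenate for 1 h (DMSO pretreatment), heated to ten temperatures (37-66.3 °C). Soluble protein was quantified by TMT mass spectrometry relative to DMSO controls; the thermal stability score was transformed to a z-score; mean of n = 3 experiments.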

[3] = arsenate co-treatment: 1 mM arsenate 1 h
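Further: each temperature applied for 3 min, abundance score taken as mean log2 fold change at the two lowest temperatures, z-score obtained by mean subtraction and division by SD.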

Sequence of UniProt P11908 (P11908 whole entry): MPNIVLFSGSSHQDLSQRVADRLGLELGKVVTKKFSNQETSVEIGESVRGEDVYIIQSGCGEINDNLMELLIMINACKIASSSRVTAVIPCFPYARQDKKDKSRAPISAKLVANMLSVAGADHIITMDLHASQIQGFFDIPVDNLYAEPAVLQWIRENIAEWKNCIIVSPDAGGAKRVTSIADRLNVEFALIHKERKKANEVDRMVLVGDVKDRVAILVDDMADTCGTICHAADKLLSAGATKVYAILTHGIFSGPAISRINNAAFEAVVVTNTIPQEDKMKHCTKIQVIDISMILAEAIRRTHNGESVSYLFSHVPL
Sequence of UniProt Q9Y520 (Q9Y520 whole entry): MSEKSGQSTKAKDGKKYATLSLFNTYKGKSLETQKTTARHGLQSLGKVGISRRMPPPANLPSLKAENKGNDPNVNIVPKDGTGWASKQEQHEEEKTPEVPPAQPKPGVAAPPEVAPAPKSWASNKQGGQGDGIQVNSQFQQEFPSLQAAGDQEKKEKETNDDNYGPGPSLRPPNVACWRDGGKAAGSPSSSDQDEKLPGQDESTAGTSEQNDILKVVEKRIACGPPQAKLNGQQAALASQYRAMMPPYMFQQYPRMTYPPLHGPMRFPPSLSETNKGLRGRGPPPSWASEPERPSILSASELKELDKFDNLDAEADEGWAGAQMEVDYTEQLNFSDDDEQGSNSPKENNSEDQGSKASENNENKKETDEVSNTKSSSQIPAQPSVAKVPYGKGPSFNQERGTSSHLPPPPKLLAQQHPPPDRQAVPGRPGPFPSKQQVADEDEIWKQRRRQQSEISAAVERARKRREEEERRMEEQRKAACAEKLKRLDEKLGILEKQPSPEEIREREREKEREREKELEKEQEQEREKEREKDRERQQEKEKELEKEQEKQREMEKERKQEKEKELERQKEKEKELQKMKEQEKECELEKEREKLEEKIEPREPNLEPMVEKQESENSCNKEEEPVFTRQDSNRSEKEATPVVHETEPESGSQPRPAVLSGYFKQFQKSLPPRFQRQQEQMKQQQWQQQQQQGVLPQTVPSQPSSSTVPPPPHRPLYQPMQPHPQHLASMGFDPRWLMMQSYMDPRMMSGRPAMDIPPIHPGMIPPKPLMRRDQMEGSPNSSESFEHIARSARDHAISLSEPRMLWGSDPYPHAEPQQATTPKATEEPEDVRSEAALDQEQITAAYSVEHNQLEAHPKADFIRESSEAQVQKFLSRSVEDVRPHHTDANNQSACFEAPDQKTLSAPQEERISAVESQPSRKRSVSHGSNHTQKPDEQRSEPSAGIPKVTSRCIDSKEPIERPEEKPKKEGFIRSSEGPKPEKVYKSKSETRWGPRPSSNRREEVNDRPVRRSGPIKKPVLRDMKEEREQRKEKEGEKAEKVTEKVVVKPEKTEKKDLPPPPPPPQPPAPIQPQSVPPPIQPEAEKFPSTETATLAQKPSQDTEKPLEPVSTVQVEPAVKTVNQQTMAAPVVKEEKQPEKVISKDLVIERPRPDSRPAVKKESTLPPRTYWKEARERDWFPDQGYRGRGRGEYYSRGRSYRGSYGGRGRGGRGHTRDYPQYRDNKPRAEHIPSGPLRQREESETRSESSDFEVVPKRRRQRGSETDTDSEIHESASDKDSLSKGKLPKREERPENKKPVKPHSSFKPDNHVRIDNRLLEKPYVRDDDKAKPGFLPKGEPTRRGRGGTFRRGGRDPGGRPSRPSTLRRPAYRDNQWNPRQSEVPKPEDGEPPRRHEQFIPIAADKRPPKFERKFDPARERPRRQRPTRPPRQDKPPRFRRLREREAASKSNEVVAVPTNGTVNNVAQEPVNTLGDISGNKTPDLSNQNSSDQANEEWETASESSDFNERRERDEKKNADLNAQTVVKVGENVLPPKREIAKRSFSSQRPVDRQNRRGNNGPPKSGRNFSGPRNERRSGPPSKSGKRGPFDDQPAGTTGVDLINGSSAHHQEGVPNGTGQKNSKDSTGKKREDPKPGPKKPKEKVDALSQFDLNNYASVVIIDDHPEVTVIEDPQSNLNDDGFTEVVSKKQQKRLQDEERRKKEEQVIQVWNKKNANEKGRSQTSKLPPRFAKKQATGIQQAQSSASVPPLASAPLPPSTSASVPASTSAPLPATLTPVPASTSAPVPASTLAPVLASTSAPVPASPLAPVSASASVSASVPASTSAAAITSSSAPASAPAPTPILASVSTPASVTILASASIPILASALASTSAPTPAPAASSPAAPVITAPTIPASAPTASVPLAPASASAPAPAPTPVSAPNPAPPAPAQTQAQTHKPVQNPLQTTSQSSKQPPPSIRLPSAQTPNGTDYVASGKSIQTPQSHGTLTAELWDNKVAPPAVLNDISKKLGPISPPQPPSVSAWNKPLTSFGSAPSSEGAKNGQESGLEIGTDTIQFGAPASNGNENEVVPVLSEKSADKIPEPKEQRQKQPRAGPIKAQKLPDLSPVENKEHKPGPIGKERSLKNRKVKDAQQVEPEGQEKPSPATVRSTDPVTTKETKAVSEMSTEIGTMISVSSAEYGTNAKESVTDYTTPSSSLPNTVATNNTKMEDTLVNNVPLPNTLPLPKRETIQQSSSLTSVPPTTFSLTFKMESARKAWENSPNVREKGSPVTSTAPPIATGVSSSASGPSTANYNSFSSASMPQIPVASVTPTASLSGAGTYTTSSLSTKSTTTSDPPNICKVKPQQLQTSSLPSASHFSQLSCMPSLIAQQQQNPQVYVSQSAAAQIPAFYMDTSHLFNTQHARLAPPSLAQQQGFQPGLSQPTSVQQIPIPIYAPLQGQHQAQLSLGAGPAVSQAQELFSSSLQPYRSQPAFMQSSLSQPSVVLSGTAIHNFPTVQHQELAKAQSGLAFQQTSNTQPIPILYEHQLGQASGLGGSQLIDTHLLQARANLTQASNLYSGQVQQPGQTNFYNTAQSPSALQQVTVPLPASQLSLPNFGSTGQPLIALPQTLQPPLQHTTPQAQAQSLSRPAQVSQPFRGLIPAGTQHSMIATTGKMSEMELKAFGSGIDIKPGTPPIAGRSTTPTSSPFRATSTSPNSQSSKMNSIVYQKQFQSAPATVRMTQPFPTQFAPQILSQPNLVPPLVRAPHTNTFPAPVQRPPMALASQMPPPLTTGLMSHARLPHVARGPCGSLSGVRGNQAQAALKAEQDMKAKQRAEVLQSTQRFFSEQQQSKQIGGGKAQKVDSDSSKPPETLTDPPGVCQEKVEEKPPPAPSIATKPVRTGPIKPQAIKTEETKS
Sequence of UniProt Q8NAV1 (Q8NAV1 whole entry): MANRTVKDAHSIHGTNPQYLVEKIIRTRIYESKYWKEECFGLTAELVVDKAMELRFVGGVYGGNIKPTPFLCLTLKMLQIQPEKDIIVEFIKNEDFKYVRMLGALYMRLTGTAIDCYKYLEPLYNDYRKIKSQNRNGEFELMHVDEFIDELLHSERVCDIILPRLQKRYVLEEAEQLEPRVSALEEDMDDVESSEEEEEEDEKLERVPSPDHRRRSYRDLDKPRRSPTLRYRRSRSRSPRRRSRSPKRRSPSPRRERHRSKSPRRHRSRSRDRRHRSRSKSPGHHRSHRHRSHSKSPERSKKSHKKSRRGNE
Sequence of UniProt Q05513 (Q05513 whole entry): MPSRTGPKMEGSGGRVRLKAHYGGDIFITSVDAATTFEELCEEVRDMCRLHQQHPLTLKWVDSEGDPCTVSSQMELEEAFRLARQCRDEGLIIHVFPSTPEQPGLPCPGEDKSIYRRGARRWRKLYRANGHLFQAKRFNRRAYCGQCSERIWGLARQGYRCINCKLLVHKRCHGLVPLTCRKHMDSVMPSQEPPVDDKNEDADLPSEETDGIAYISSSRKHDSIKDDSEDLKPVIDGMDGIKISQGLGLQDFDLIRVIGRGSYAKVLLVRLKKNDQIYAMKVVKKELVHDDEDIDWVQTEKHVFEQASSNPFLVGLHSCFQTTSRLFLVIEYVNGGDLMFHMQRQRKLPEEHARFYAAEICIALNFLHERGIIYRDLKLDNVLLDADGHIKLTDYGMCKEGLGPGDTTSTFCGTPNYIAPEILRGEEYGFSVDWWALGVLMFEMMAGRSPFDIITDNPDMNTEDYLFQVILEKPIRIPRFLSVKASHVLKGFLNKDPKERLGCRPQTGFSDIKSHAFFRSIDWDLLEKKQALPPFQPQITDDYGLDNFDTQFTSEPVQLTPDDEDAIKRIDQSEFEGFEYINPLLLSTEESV
Sequence of UniProt Q9Y617 (Q9Y617 whole entry): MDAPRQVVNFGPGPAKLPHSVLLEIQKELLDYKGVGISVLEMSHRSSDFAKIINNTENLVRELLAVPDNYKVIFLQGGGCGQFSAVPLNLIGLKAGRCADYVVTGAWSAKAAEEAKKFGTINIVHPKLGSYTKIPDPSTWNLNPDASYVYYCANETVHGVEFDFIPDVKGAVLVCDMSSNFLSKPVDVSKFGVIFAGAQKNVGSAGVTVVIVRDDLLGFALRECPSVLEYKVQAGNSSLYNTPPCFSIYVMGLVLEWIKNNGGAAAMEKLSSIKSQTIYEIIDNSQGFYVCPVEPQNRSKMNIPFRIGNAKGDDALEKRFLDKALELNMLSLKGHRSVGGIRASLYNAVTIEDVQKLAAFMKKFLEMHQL
Sequence of UniProt O94903 (O94903 whole entry): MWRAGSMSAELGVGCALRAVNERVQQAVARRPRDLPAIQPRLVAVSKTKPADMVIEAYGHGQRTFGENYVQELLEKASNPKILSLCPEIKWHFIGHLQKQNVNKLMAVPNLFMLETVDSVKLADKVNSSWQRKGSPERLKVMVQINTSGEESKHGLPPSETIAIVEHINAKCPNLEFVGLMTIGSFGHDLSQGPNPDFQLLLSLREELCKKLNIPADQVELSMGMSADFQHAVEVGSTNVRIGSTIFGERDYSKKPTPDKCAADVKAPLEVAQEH
Sequence of UniProt Q9H875 (Q9H875 whole entry): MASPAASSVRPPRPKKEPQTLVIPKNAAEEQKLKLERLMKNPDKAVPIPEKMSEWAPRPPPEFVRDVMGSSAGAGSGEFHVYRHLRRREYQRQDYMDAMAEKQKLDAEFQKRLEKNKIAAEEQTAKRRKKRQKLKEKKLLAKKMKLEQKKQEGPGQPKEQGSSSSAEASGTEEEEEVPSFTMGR

Target	thermal stability z-score [1, 3]	thermal stability z-score ([1]; arsenate co-treatment: none)	thermal stability z-score [2]
PRKAA1 (UniProt Q13131)	-0.417	-0.0988	0.048
PRKAB1 (UniProt Q9Y478)	-0.236	0.539	-0.528
PRKACA (UniProt P17612)	0.104	0.151	0.535
PRKACB (UniProt P22694)	-0.58	-0.36	0.18
PRKAG1 (UniProt P54619)	0.174	0.0278	0.942
PRKAR1A (UniProt P10644)	-0.101	0.167	-0.065
PRKAR1B (UniProt P31321)	0.568	0.264	1.31
PRKAR2A (UniProt P13861)	0.114	0.239	0.904
PRKCA (UniProt P17252)	0.358	0.32	0.458
PRKCD (UniProt Q05655)	-0.0378	0.235	-0.477
PRKCDBP (UniProt Q969G5)	1.06	-0.0261	0.331
PRKCI (UniProt P41743)	-0.507	-0.312	-0.914
PRKCSH (UniProt P14314)	-2.77	-2.47	0.768
PRKCZ (UniProt Q05513)	-0.134	-0.119	-0.0717
PRKD2 (UniProt Q9BZL6)	-0.0965	-0.0785	-0.232
PRKDC (UniProt P78527)	0.373	0.169	-0.559
PRKRA (UniProt O75569)	-0.115	-0.0608	-0.312
PRKRIP1 (UniProt Q9H875)	0.524	0.599	0.247
PRMT1 (UniProt Q99873)	0.147	0.262	-0.12
PRMT3 (UniProt O60678)	-0.336	0.22	-0.148
PRMT5 (UniProt O14744)	0.459	0.231	-0.408
PRMT6 (UniProt Q96LA8)	0.257	0.412	0.483
PRMT7 (UniProt Q9NVM4)	-0.363	0.259	1.47
PRMT9 (UniProt Q6P2P2)	0.25	0.0769	0.171
PRNP	0.0235	0.239	0.0499
PROCR (UniProt Q9UNN8)	1.19	0.359	1.04
PROSC (UniProt O94903)	-0.595	0.453	-1.14
PROSER2 (UniProt Q86WR7)	-0.111	-0.0827	-0.644

Target	thermal stability z-score [1, 3]	thermal stability z-score ([1]; arsenate co-treatment: none)	thermal stability z-score [2]
PRPF3 (UniProt O43395)	2.57	2.44	-0.0589
PRPF4 (UniProt O43172)	1.82	1.6	0.565
PRPF6 (UniProt O94906)	-0.136	-0.0563	-0.171
PRPF8 (UniProt Q6P2Q9)	-0.186	-0.395	-0.418
PRPF18 (UniProt Q99633)	-0.378	0.186	-0.321
PRPF19 (UniProt Q9UMS4)	1.23	0.686	-0.692
PRPF31 (UniProt Q8WWY3)	-0.0354	-0.524	-0.687
PRPF38A (UniProt Q8NAV1)	0.22	0.213	0.503
PRPF38B (UniProt Q5VTL8)	-0.807	-0.366	-0.358
PRPF39 (UniProt Q86UA1)	-0.0835	-0.137	-0.0696
PRPF40A (UniProt O75400)	-0.0187	0.00497	0.00775
PRPS1 (UniProt P60891)	0.0132	-0.285	-1.1
PRPS2 (UniProt P11908)	0.114	-0.199	-1.24
PRPSAP1 (UniProt Q14558)	0.0495	-0.517	-0.858
PRPSAP2 (UniProt O60256)	-0.04	-0.392	-0.637
PRRC1 (UniProt Q96M27)	0.101	0.135	-0.142
PRRC2A (UniProt P48634)	0.431	0.205	-0.13
PRRC2B (UniProt Q5JSZ5)	-0.32	-0.119	-0.412
PRRC2C (UniProt Q9Y520)	0.242	0.174	0.0846
PRSS21 (UniProt Q9Y6M0)	-3	-2.45	1.03
PRSS56 (UniProt P0CW18)	-3.63	-2.95	0.756
PRTFDC1 (UniProt Q9NRG1)	0.628	0.169	-0.386
PRUNE (UniProt Q86TP1)	-0.709	-0.433	0.291
PSAP (UniProt P07602)	0.0503	-0.136	-0.336
PSAT1 (UniProt Q9Y617)	0.659	0.402	-0.653
PSEN1 (UniProt P49768)	1.23	-2	-2.52
PSEN2 (UniProt P49810)	-0.815	-1.79	-1.19
